What all share (assay): NCI-60 cell line screen, 48 h
Assay [1] concerns HS 578T breast.
Assay [2] deals with SK-MEL-5 melanoma.
The test system of assay [3] is M14 melanoma.
The test system of assay [4] is SN12C renal.
Assay [5] relates to 786-0 renal.
Assay [6] relates to HCT-116 colon.
Assay [7] has as its system KM12 colon.
For assay [8], the system named is SW-620 colon.
The test system of assay [9] is RXF 393 renal.
Assay [10] deals with UO-31 renal.

Our source for the GI50 and TGI values is PubChem BioAssay (NCI).

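Each compound was tested at five concentrations against cells in 96-well plates for 48 hours. GI50 is the concentration that inhibits growth by half. At the TGI there is no net growth.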 A value given as a limit tells only on which side of the number the result lay.

Regarding `N#CC1=C(N)Oc2c(ccc3ccccc23)C1c1cc2ccccc2n2nnnc12` (stereo not given), the GI50 in assay [1] is 1510 nM; in [2] it was 611 nM; in assay [3] it was 948 nM; in assay [4] it was 990 nM; in assay [5], 1280 nM; in assay [6], 685 nM. In addition, the GI50 in assay [7] was 628 nM; in assay [8], 467 nM; in [9] it was 1400 nM; in assay [10], 725 nM. For the same compound, the TGI is 49300 nM in assay [1]; more than 100000 nM in [2]; more than 100000 nM in assay [3]; more than 100000 nM in [4]; more than 100000 nM in assay [5]; more than 100000 nM in [6]. Besides, the TGI is more than 100000 nM in assay [7], more than 100000 nM in [8], 6590 nM in [9] and more than 100000 nM in assay [10].

Turning to `COc1ccc([C@@H]2[C@@H](Oc3ccccc3)C(=O)N2c2cc(OC)c(OC)c(OC)c2)cc1F`, the GI50 was 86.4 nM in [1]; 50.4 nM in [2]; 81.8 nM in assay [3]; 383 nM in assay [4]; 198 nM in [5]; 161 nM in assay [6]. Also, the GI50 in assay [7] is 88 nM; in assay [8], 76.9 nM; in assay [9] it was 59.3 nM; in [10] it was 562 nM. The TGI in assay [1] is 77900 nM; in assay [2], 1490 nM; in [3], 1720 nM; in [4] it was more than 100000 nM; in assay [5] it was more than 100000 nM; in assay [6], 2450 nM. Moreover, the TGI in assay [7], in [8], in assay [9] and in [10] was more than 100000 nM in each case.

Consider `O=C1NC(c2ccccc2Cl)Nc2ccccc21` (stereo not given), for which the TGI in [1] is 54700 nM; in assay [2], more than 80500 nM; in [3] it was more than 100000 nM; in assay [4], more than 100000 nM; in assay [5] it was more than 100000 nM; in assay [6], more than 100000 nM. The TGI in assay [7] is more than 100000 nM; in assay [8], more than 30100 nM; in assay [9] it was 63100 nM; in assay [10] it was more than 100000 nM.

For the compound `CC(C)c1ccc2c(c1)CCC1C2CCCC1(C)NCc1ccccc1` (stereo not given), the GI50 is 4990 nM in [1]; 1820 nM in assay [2]; 1970 nM in [3]; 5560 nM in assay [4]; 2430 nM in [5]; 4210 nM in [6]. Further, the GI50 in assay [7] was 3070 nM; in [8] it was 2170 nM; in assay [9], 2440 nM; in assay [10] it was 6760 nM. Besides, the TGI in assay [1] was determined as 23700 nM; in [2], 3350 nM; in [3], 3710 nM; in assay [4], 19200 nM; in assay [5] it was 5610 nM; in assay [6], 14700 nM. For the same compound, the TGI amounted to 11600 nM in [7], 6100 nM in assay [8], 4660 nM in [9] and 21100 nM in assay [10].

Regarding `CC[C@]12C=CCN3CC[C@@]4(c5ccc(OC)cc5N(C)[C@H]4[C@@](O)(C(=O)OC)[C@@H]1OC(=O)CCCN1CCN(CCCC(=O)O[C@@H]4[C@]5(CC)C=CCN6CC[C@@]7(c8ccc(OC)cc8N(C)[C@H]7[C@@]4(O)C(=O)OC)[C@@H]65)CC1)[C@@H]32`, the GI50 in assay [1] is 1390 nM; in [2] it was 1480 nM; in assay [3], 1870 nM; in [4], 1140 nM; in [5], 1440 nM; in [6], 317 nM. In addition, the GI50 was 985 nM in assay [7], 1600 nM in assay [8], 484 nM in assay [9] and 1100 nM in assay [10]. The TGI in assay [1] stood at 3380 nM; in assay [2], 2830 nM; in [3], 3610 nM; in assay [4] it was 2550 nM; in assay [5], 2910 nM; in assay [6] it was 1050 nM. Further, the TGI in [7] stood at 2310 nM; in assay [8], 3210 nM; in [9] it was 1720 nM; in assay [10] it was 2330 nM.

For `Cc1cccc(Oc2ccc(Nc3ncnc4ccc(NC(=O)CN(C)C)cc34)cc2Cl)c1`, the GI50 is 1810 nM in [1]; 1640 nM in assay [2]; 1710 nM in assay [3]; 1340 nM in assay [4]; 1590 nM in [5]; 1610 nM in [6]. Also, the GI50 in assay [7] is 2000 nM; in assay [8] it was 1640 nM; in [9], 1610 nM; in assay [10] it was 1120 nM. The TGI in [1] worked out at 4330 nM; in assay [2], 3030 nM; in assay [3], 3500 nM; in assay [4], 3130 nM; in assay [5] it was 3160 nM; in [6], 3090 nM. For the same compound, the TGI in assay [7] stood at 4090 nM; in assay [8], 3050 nM; in assay [9], 3190 nM; in [10] it was 2470 nM.

For the compound `COc1ccc(-c2c(Nc3ccccn3)nc3c(C4=CCCCC4)c(-c4ccccc4)[nH]n3c2=O)cc1`, the GI50 in [1] was 3320 nM; in assay [2], 2670 nM; in [3], 1230 nM; in assay [4], 2700 nM; in [5], 2630 nM; in assay [6], 1320 nM. For the same compound, the GI50 in assay [7] was 3700 nM; in assay [8], 3070 nM; in assay [9], 2550 nM; in [10] it was 2190 nM. The TGI in assay [1] is 33100 nM; in [2], more than 100000 nM; in assay [3], more than 100000 nM; in assay [4], more than 100000 nM; in assay [5], 16300 nM; in assay [6], 11800 nM. The TGI in [7] was more than 100000 nM; in assay [8] it was more than 100000 nM; in assay [9], 11600 nM; in assay [10], more than 100000 nM.
